Results: patent US20260138961A1, “MODULATORS OF MITOCHONDRIAL DNA REPLICATION” (Pretzel Therapeutics, Inc., priority 2022, published 2026)

The molecules below were run against T1, POLγA:G848S (Homo sapiens, UniProt P54098, G848S) (assay: DNA polymerization assay, POLγA:G848S mutant). Settings: stimulation of polymerase activity, primed M13mp18 ssDNA, 37° C. 2 hours; read-out: G848S AC50.
T1 sequence (P54098 1-1239 G848S): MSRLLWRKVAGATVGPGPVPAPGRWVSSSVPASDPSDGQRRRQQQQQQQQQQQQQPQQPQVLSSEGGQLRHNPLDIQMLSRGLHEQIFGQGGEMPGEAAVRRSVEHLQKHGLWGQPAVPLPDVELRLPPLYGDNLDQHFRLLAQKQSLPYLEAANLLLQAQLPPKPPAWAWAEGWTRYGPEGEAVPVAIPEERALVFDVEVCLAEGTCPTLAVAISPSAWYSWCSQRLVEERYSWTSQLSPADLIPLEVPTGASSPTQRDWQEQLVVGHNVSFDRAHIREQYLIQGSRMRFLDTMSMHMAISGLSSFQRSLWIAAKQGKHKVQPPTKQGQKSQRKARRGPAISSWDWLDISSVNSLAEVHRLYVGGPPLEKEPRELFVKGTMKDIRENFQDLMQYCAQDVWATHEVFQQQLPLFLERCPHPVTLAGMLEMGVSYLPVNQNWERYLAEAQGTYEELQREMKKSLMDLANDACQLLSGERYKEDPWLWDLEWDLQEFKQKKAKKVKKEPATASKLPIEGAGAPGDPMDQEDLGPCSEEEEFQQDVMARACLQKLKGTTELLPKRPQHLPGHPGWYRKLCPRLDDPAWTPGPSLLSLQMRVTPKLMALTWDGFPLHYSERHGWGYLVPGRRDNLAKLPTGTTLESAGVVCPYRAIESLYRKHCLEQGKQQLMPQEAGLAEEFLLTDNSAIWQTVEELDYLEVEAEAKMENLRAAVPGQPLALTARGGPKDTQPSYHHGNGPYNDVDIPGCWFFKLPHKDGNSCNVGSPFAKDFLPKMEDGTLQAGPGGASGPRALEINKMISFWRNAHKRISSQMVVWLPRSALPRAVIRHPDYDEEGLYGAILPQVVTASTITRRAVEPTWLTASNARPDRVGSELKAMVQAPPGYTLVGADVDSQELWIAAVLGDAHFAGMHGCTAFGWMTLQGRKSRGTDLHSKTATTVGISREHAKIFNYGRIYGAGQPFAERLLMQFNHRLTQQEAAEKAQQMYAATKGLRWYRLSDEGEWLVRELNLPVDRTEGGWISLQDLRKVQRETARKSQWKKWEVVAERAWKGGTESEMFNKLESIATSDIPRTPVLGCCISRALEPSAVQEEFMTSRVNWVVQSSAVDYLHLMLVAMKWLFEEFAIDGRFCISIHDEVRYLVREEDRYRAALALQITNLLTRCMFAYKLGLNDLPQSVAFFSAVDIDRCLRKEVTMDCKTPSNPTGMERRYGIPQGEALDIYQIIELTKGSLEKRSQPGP
T1 sequence (Q9UHN1 1-485 partner): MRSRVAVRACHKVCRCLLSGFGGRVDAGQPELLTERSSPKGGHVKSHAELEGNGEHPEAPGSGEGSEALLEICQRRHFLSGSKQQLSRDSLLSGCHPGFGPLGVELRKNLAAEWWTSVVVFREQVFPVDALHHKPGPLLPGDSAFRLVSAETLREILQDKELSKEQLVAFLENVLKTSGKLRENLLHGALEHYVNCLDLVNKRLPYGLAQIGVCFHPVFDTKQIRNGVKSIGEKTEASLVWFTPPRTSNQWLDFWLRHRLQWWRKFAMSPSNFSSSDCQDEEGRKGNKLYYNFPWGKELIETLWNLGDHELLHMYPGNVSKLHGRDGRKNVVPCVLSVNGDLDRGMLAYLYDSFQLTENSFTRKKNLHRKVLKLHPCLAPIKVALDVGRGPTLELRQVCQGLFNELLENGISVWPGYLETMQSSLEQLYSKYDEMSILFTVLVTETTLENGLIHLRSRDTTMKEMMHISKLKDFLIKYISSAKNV
Format: biochemical

Structure (SMILES) | AC50 [µM]
Cc1cc(S(=O)(=O)Nc2cccc(C(=O)N3CCN(C)CC3)c2)c(C)cc1Cl [Example 52, 4-chloro-2,5-dimethyl-N-(3-(4-methylpiperazine-1-carbonyl)phenyl)benzenesulfonamide] | > 100
Cc1cc(S(=O)(=O)Nc2cccc(C(=O)NCCO)c2)c(C)cc1Cl [Example 53, 3-((4-chloro-2,5-dimethylphenyl)sulfonamido)-N-(2-hydroxyethyl)benzamide] | 63
Cc1cc(S(=O)(=O)Nc2cccc(C(=O)N3CCN(C)C[C@H]3C)c2)c(C)cc1Cl [Example 54, (R)-4-chloro-N-(3-(2,4-dimethylpiperazine-1-carbonyl)phenyl)-2,5-dimethylbenzenesulfonamide] | 21
Cc1cc(S(=O)(=O)Nc2cccc(C(=O)N3CCN(CCO)CC3)c2)c(C)cc1Cl [Example 55, 4-chloro-N-(3-(4-(2-hydroxyethyl)piperazine-1-carbonyl)phenyl)-2,5-dimethylbenzenesulfonamide] | > 100
Cc1cc(S(=O)(=O)Nc2cccc(C(=O)N(C)CCO)c2)c(C)cc1Cl [Example 56, 3-((4-chloro-2,5-dimethylphenyl)sulfonamido)-N-(2-hydoxyethyl)-N-methylbenzamide] | 56
Cc1cc(S(=O)(=O)Nc2cccc(C(=O)N3CCC[C@H]3C)c2F)c(C)cc1Cl [Example 57, (R)-4-chloro-N-(2-fluoro-3-(2-methylpyrrolidine-1-carbonyl)phenyl)-2,5-dimethylbenzenesulfonamide] | > 100
COCCN(C)C(=O)c1cccc(NS(=O)(=O)c2cc(C)c(Cl)cc2C)c1 [Example 58, 3-((4-chloro-2,5-dimethylphenyl)sulfonamido)-N-(2-methoxyethyl)-N-methylbenzamide] | 46
O=S(=O)(Nc1cccc(-c2nccs2)c1)c1ccc(Cl)cc1 [Example 59, 4-chloro-N-(3-(thiazol-2-yl)phenyl)benzenesulfonamide] | > 100
Cc1ccc(C)c(S(=O)(=O)Nc2cccc(-c3nccs3)c2)c1 [Example 60] | 2
Cc1cc(S(=O)(=O)Nc2cc(-c3nccs3)ccc2F)c(C)cc1Cl [Example 61, 4-chloro-N-(2-fluoro-5-(thiazol-2-yl)phenyl)-2,5-dimethylbenzenesulfonamide] | > 100
Cc1cc(S(=O)(=O)Nc2cc(F)cc(-c3nccs3)c2)c(C)cc1Cl [Example 62, 4-chloro-N-(3-fluoro-5-(thiazol-2-yl)phenyl)-2,5-dimethylbenzenesulfonamide] | > 100
Cc1cc(S(=O)(=O)Nc2ccc(F)c(-c3nccs3)c2)c(C)cc1Cl [Example 63, 4-chloro-N-(4-fluoro-3-(thiazol-2-yl)phenyl)-2,5-dimethylbenzenesulfonamide] | > 100
Cc1cc(S(=O)(=O)Nc2cccc(-c3cc(C4CC4)[nH]n3)c2)c(C)cc1Cl [Example 64, 4-chloro-N-(3-(5-cyclopropyl-1H-pyrazol-3-yl)phenyl)-2,5-dimethylbenzenesulfonamide] | 1
CC[C@@H]1CCCN1C(=O)c1cccc(NS(=O)(=O)c2cc(C)c(Cl)cc2C)c1 [Example 65, (R)-4-chloro-N-(3-(2-ethylpyrrolidine-1-carbonyl)phenyl)-2,5-dimethylbenzenesulfonamide] | 12
Cc1cc(-c2cccc(NS(=O)(=O)c3cc(C)c(Cl)cc3C)c2)n[nH]1 [Example 66, 4-chloro-2,5-dimethyl-N-(3-(5-methyl-1H-pyrazol-3-yl)phenyl)benzenesulfonamide] | 1
Cc1cc(S(=O)(=O)Nc2ccc3ccn(C(C)C)c3c2)c(C)cc1Cl [Example 69, 4-chloro-N-(1-isopropyl-1H-indol-6-yl)-2,5-dimethylbenzenesulfonamide] | 14

Structure (SMILES) | AC50 [µM]
Cc1nc2ccc(NS(=O)(=O)c3cc(C)c(Cl)cc3C)cc2o1 [Example 70, 4-chloro-2,5-dimethyl-N-(2-methylbenzo[d]oxazol-6-yl)benzenesulfonamide] | 49
Cc1nc2cc(NS(=O)(=O)c3cc(C)c(Cl)cc3C)ccc2s1 [Example 71, 4-chloro-2,5-dimethyl-N-(2-methylbenzo[d]thiazol-5-yl)benzenesulfonamide] | > 100
Cc1c(Cl)cccc1S(=O)(=O)Nc1csc(-c2ccccc2)n1 [Example 154, 3-chloro-2-methyl-N-(2-phenylthiazol-4-yl)benzenesulfonamide] | > 100
COc1ccccc1-c1nc(NS(=O)(=O)c2cc(C)c(Cl)cc2C)cs1 [Example 155, 4-chloro-N-(2-(2-methoxyphenyl)thiazol-4-yl)-2,5-dimethylbenzenesulfonamide] | 4
Cc1cc(S(=O)(=O)Nc2nc(-c3ccccc3)co2)c(C)cc1Cl [Example 157, 4-chloro-2,5-dimethyl-N-(4-phenyloxazol-2-yl)benzenesulfonamide] | > 100
Cc1cc(S(=O)(=O)N[C@H]2CCN(c3ccccc3)C2)c(C)cc1Cl [Example 158, (S)-4-chloro-2,5-dimethyl-N-(1-phenylpyrrolidin-3-yl)benzenesulfonamide] | > 100
Cc1cc(S(=O)(=O)Nc2nc(-c3ccccc3)cn2C)c(C)cc1Cl [Example 159, 4-chloro-2,5-dimethyl-N-(1-methyl-4-phenyl-1H-imidazol-2-yl)benzenesulfonamide] | > 100
Cc1cc(S(=O)(=O)Nc2cccc(C(=O)N3CCC(F)(F)C3)c2)c(C)cc1Cl [Example 160, 4-chloro-N-(3-(3,3-difluoropyrrolidine-1-carbonyl)phenyl)-2,5-dimethylbenzenesulfonamide] | 14
Cc1cc(S(=O)(=O)N[C@H]2CCCN(c3ccccc3)C2)c(C)cc1Cl [Example 161, (S)-4-chloro-2,5-dimethyl-N-(1-phenylpiperidin-3-yl)benzenesulfonamide] | 31
Cc1cc(S(=O)(=O)Nc2cccc(C(=O)N3CCCC34CC4)c2)c(C)cc1Cl [Example 162, N-(3-(4-azaspiro[2.4]heptane-4-carbonyl)phenyl)-4-chloro-2,5-dimethylbenzenesulfonamide] | 13
CC(=O)N1CCC(c2nc(NS(=O)(=O)c3cc(C)c(Cl)cc3C)cs2)CC1 [Example 163, N-(2-(1-acetylpiperidin-4-yl)thiazol-4-yl)-4-chloro-2,5-dimethylbenzenesulfonamide] | 37
Cc1cc(S(=O)(=O)Nc2csc(C(=O)N3CCCC3)n2)c(C)cc1Cl [Example 166, 4-chloro-2,5-dimethyl-N-(2-(pyrrolidine-1-carbonyl)thiazol-4-yl)benzenesulfonamide] | 0.6
Cc1cc(S(=O)(=O)Nc2csc(C3CCOCC3)n2)c(C)cc1Cl [Example 167, 4-chloro-2,5-dimethyl-N-(2-(tetrahydro-2H-pyran-4-yl)thiazol-4-yl)benzenesulfonamide] | 2
Cc1cc(S(=O)(=O)Nc2cn(Cc3ccccc3)cn2)c(C)cc1Cl [Example 168, N-(1-benzyl-1H-imidazol-4-yl)-4-chloro-2,5-dimethylbenzenesulfonamide] | > 100
Cc1cc(S(=O)(=O)Nc2cn(-c3ccccc3)cn2)c(C)cc1Cl [Example 169, 4-chloro-2,5-dimethyl-N-(1-phenyl-1H-imidazol-4-yl)benzenesulfonamide] | > 100
Cc1cc(S(=O)(=O)Nc2cn(C)c(-c3ccccc3)n2)c(C)cc1Cl [Example 170, 4-chloro-2,5-dimethyl-N-(1-methyl-2-phenyl-1H-imidazol-4-yl)benzenesulfonamide] | > 10
